The subject of one data set is Micrococcus luteus. The data set is described as follows: Antibacterial activity against Micrococcus luteus. The class given is functional.
The test system of another data set is Mycolicibacterium phlei. The experiment in a line: Antibacterial activity against Mycobacterium phlei. The format is functional.
The subject of a further data set is Saccharomyces cerevisiae. The experiment in a line: Antibacterial activity against Saccharomyces cerevisiae. The format is functional.
In another data set the test system is Staphylococcus aureus. The data set is described as follows: Antibacterial activity against Staphylococcus aureus. The format is functional.
Data set [1] relates to Corynebacterium glutamicum. The experiment in a line: Antibacterial activity against Corynebacterium glutamicum. The format is functional.
The test system of the next data set is Escherichia coli. The experiment in a line: Antibacterial activity against Escherichia coli. The format is functional.
Data set [2] in a line: Chemical stability at pH >10. The class given is physicochemical.
The nature of data set [3]: Chemical stability after 48 hrs. The format is physicochemical. Particulars: read-out: Stability.
Data set [4] is described as follows: Chemical stability at pH >3. The class given is physicochemical.
Data set [5] in a line: Chemical stability at pH 7. The conditions noted are these: buffer. The format is physicochemical.

Each structure is given as a SMILES string. ≈ marks a conversion by molar mass, not a printed value.

The results in this text go back to ChEMBL document CHEMBL1159088, “Design, synthesis and biological evaluation of simplified analogues of the RNA polymerase inhibitor etnangien” (Bioorg Med Chem Lett, 2010).

As to `CO[C@@H]1C/C=C\C=C\C[C@H](C)[C@H]2OC(C)(C)O[C@H]([C@H]2C)[C@H](C)[C@H](O)CC(=O)O[C@H]([C@H](C)[C@H](O)/C=C(C)/C=C/CO)C[C@H](O)CCC1`, the MIC in the data set on Micrococcus luteus is greater than 20 µg/mL; in the data set with Mycolicibacterium phlei, 20 µg/mL (≈ 30.7 µM); against Saccharomyces cerevisiae, greater than 20 µg/mL; against Staphylococcus aureus, greater than 20 µg/mL; in [1], 10 µg/mL (≈ 15.4 µM); against Escherichia coli it was greater than 20 µg/mL.
As to `COc1ccc(COC[C@@H](C)[C@@H](O)C[C@H]2CCC[C@H](OC)C/C=C\C=C\C[C@H](C)[C@@H](O)[C@H](C)[C@@H](O)[C@H](C)[C@H](O)CC(=O)O2)cc1`, the minimum inhibitory concentration (MIC) was greater than 20 µg/mL in the data set on Micrococcus luteus; greater than 20 µg/mL in the data set on Mycolicibacterium phlei; greater than 20 µg/mL with Saccharomyces cerevisiae; greater than 20 µg/mL in the data set on Staphylococcus aureus; 20 µg/mL (≈ 31.5 µM) in [1]; greater than 20 µg/mL in the data set with Escherichia coli.
In the case of `COc1ccc(COC[C@@H](C)[C@@H]2C[C@H](O)CCC[C@H](OC)C/C=C\C=C\C[C@H](C)[C@@H](O)[C@H](C)[C@@H](O)[C@H](C)[C@H](O)CC(=O)O2)cc1`, the minimum inhibitory concentration (MIC) in the data set with Micrococcus luteus was greater than 20 µg/mL; in the data set on Mycolicibacterium phlei, 20 µg/mL (≈ 31.5 µM); against Saccharomyces cerevisiae it was greater than 20 µg/mL; with Staphylococcus aureus, greater than 20 µg/mL; in data set [1], 10 µg/mL (≈ 15.8 µM); against Escherichia coli it was greater than 20 µg/mL.
In the case of `COC(=O)CC/C=C(\C)[C@@H](O)C/C=C/C=C/C=C/C=C/C=C/C(C)=C/[C@@H](O)[C@@H](C)[C@@H]1C[C@H](O)CCC[C@H](OC)C/C=C\C=C\C[C@H](C)[C@@H](O)[C@H](C)[C@@H](O)[C@H](C)[C@H](O)CC(=O)O1` [ETNANGIEN METHYL ESTER], the Stability entry in data set [2] is listed as “Unstable”; in data set [4], “Unstable”; in data set [5], “Stable”. In data set [3], the remaining at 48 h is less than 5%. Besides, the minimum inhibitory concentration (MIC) in the data set on Micrococcus luteus was 0.39 µg/mL (≈ 0.456 µM); against Saccharomyces cerevisiae, greater than 40 µg/mL; with Staphylococcus aureus, 2.5 µg/mL (≈ 2.92 µM); in data set [1], 0.24 µg/mL (≈ 0.281 µM); in the data set on Escherichia coli, greater than 20 µg/mL.
As for `CO[C@@H]1C/C=C\C=C\C[C@H](C)[C@@H](O)[C@H](C)[C@@H](O)[C@H](C)[C@H](O)CC(=O)O[C@H]([C@H](C)[C@H](O)/C=C(C)/C=C/C=C/C=C/C=C/C=C/C[C@H](O)/C(C)=C/CCC(=O)O)C[C@H](O)CCC1` [ETNANGIEN], the Stability result in data set [2] is on record as “Unstable”; in data set [4], “Unstable”; in [5], “Stable”. The MIC with Micrococcus luteus was 0.06 µg/mL (≈ 0.0713 µM); with Mycolicibacterium phlei it was 0.12 µg/mL (≈ 0.143 µM); with Saccharomyces cerevisiae, greater than 80 µg/mL; in the data set with Staphylococcus aureus, 1 µg/mL (≈ 1.19 µM); in [1] it was 0.03 µg/mL (≈ 0.0357 µM); with Escherichia coli, greater than 80 µg/mL.
